Laboratory results published in the supplement of paper PMC10307832.

Key:
Assay in all cases: relative viability (nuclei count vs DMSO), 5 days (fraction); higher = more cells survive
[1] = compound: CN(C)C(=N)NC(=N)N [Metformin] + Cc1nc(NC(=O)N2CCC[C@H]2C(N)=O)sc1-c1ccnc(C(C)(C)C(F)(F)F)c1 [Alpelisib] (partner 2 µM)
Summary of the method: (§1)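 Medians of duplicate plates are given as relative viability. That measure is the nuclei count in treated wells divided by the count in vehicle wells. Counts were taken on 4× images of lung cancer cell lines in 1536-well plates, 5 days after pin-tool dosing the day after seeding with one drug alone or a fixed anchor-drug dose plus five library-drug doses (not always all listed) in √10 steps.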

[2] = compound: N#CC1(c2ccc(NC(=O)c3cccnc3NCc3ccncc3)cc2)CCCC1 [Apatinib] + NC(=O)Nc1cc(-c2cccc(F)c2)sc1C(=O)N[C@H]1CCCNC1 [AZD7762] (partner 0.2 µM)
Summary of the method: as §1

[3] = compound: N#CC1(c2ccc(NC(=O)c3cccnc3NCc3ccncc3)cc2)CCCC1 [Apatinib] + CC(C)C[C@H](NC(=O)[C@H](Cc1ccccc1)NC(=O)c1cnccn1)B(O)O [Bortezomib] (partner 0.002 µM)
Summary of the method: as §1

[4] = compound: N#CC1(c2ccc(NC(=O)c3cccnc3NCc3ccncc3)cc2)CCCC1 [Apatinib] + CC(=O)c1c(C)c2cnc(Nc3ccc(N4CCNCC4)cn3)nc2n(C2CCCC2)c1=O [Palbociclib] (partner 0.5 µM)
Summary of the method: as §1

Cell Line | relative viability ([1]; first compound 10 µM) | relative viability ([1]; first compound 31.62 µM) | relative viability ([1]; first compound 100 µM) | relative viability ([1]; first compound 316.23 µM) | relative viability ([1]; first compound 1000 µM) | relative viability ([2]; first compound 0.08 µM) | relative viability ([2]; first compound 0.253 µM) | relative viability ([2]; first compound 0.8 µM) | relative viability ([2]; first compound 2.53 µM) | relative viability ([2]; first compound 8 µM) | relative viability ([3]; first compound 0.08 µM) | relative viability ([3]; first compound 0.253 µM) | relative viability ([3]; first compound 0.8 µM) | relative viability ([3]; first compound 2.53 µM) | relative viability ([3]; first compound 8 µM) | relative viability ([4]; first compound 0.08 µM) | relative viability ([4]; first compound 0.253 µM) | relative viability ([4]; first compound 0.8 µM) | relative viability ([4]; first compound 2.53 µM) | relative viability ([4]; first compound 8 µM)
EKVX | 0.656 | 0.934 | 0.88 | 0.812 | 0.835 | 0.641 | 0.572 | 0.656 | 0.593 | 0.574 | 0.941 | 1.21 | 0.967 | 0.98 | 1.01 | 0.378 | 0.482 | 0.33 | 0.375 | 0.378
EPLC-272H | 1.15 | 1.04 | 1.1 | 1.04 | 1.13 | 0.334 | 0.24 | 0.206 | 0.174 | 0.17 | 1.04 | 0.905 | 0.806 | 0.738 | 0.666 | 0.284 | 0.341 | 0.359 | 0.336 | 0.313
NCI-H1666 | 0.943 | 1.05 | 1.12 | 0.981 | 1.29 | 0.828 | 0.871 | 0.776 | 0.769 | 0.746 | 0.829 | 1.02 | 0.824 | 0.785 | 0.825 | 0.675 | 0.638 | 0.655 | 0.629 | 0.626
NCI-H322M | 0.83 | 0.901 | 0.845 | 0.787 | 0.779 | 0.553 | 0.58 | 0.549 | 0.471 | 0.471 | 1.23 | 1.19 | 1.05 | 1.24 | 1.25 | 0.464 | 0.539 | 0.499 | 0.51 | 0.57
NCI-H1437 | 1.11 | 1.03 | 1.07 | 1.05 | 1.01 | 1.07 | 1.12 | 1.02 | 1.04 | 0.812 | 0.52 | 0.526 | 0.461 | 0.434 | 0.439 | 0.314 | 0.3 | 0.277 | 0.254 | 0.209
NCI-H23 | 0.825 | 0.941 | 0.696 | 0.715 | 0.901 | 0.275 | 0.193 | 0.21 | 0.134 | 0.108 | 0.91 | 1.01 | 0.908 | 0.902 | 0.805 | 0.561 | 0.57 | 0.575 | 0.409 | 0.424
NCI-H647 | 1.07 | 1.05 | 1.08 | 1.15 | 1.21 |  | 0.482 | 0.372 | 0.341 | 0.344 | 1.27 | 1.33 | 1.01 | 0.736 | 0.823 | 0.516 | 0.451 | 0.336 | 0.384 | 0.303
HCC-78 | 0.408 | 0.537 | 0.57 | 0.469 | 0.598 | 0.553 | 0.766 | 0.666 | 0.539 | 0.638 | 0.539 | 0.525 | 0.618 | 0.505 | 0.476 | 0.48 | 0.453 | 0.476 | 0.494 | 0.442
